Measurements from ChEMBL document CHEMBL3885881, “DrugMatrix”.

Species on record: Rattus norvegicus
Test: DrugMatrix - Regimen: Daily Repeat
Format: toxicity, organism-based, Sprague-Dawley
Parameters: regimen Daily Repeat, gender Male, age 6-8 weeks
Settings: in vivo, po, 2000 mg/kg, route oral GAVAGE, dose level High, vehicle .5 % CMC; for ABSOLUTE BASOPHIL / ABSOLUTE EOSINOPHIL / ABSOLUTE LYMPHOCYTE / ABSOLUTE MONOCYTE / ABSOLUTE SEGMENTED NEUTROPHIL / BASOPHIL / EOSINOPHIL / ERYTHROCYTE COUNT / HEMATOCRIT / HEMOGLOBIN / LEUKOCYTE COUNT / LYMPHOCYTE / MEAN CORPUSCULAR HEMOGLOBIN / MEAN CORPUSCULAR HEMOGLOBIN CONCENTRATION / MEAN CORPUSCULAR VOLUME / MONOCYTE / NEUTROPHIL / NUCLEATED RED BLOOD CELLS / PLATELET COUNT: tissue Blood; for ALANINE AMINOTRANSFERASE / ALBUMIN / ALKALINE PHOSPHATASE / ASPARTATE AMINOTRANSFERASE / BLOOD UREA NITROGEN / CARBON DIOXIDE / CHLORIDE / CHOLESTEROL / CREATINE PHOSPHOKINASE / CREATININE / GLUCOSE / LACTATE DEHYDROGENASE / LIPASE / PHOSPHORUS / POTASSIUM / SODIUM / TOTAL BILIRUBIN / TOTAL PROTEIN / URIC ACID: tissue Plasma

CC(=O)O[C@]1(C(C)=O)CC[C@H]2[C@@H]3C=C(Cl)C4=CC(=O)CC[C@]4(C)[C@H]3CC[C@@]21C [CHLORMADINONE ACETATE]
ABSOLUTE BASOPHIL (72 h, time 3 day): 0 CELLS/uL | ABSOLUTE EOSINOPHIL (72 h, time 3 day): 87.33 CELLS/uL | ABSOLUTE LYMPHOCYTE (72 h, time 3 day): 10368.67 CELLS/uL | ABSOLUTE MONOCYTE (72 h, time 3 day): 145 CELLS/uL | ABSOLUTE SEGMENTED NEUTROPHIL (72 h, time 3 day): 665.67 CELLS/uL | BASOPHIL (72 h, time 3 day): 0% | EOSINOPHIL (72 h, time 3 day): 0.67% | ERYTHROCYTE COUNT (72 h, time 3 day): 5.63 x10E6/uL | HEMATOCRIT (72 h, time 3 day): 36.4% | HEMOGLOBIN (72 h, time 3 day): 14.6 G/DL | LEUKOCYTE COUNT (72 h, time 3 day): 11.27 x10E3/uL | LYMPHOCYTE (72 h, time 3 day): 90.67% | MEAN CORPUSCULAR HEMOGLOBIN (72 h, time 3 day): 25.93 pg | MEAN CORPUSCULAR HEMOGLOBIN CONCENTRATION (72 h, time 3 day): 40.1 G/DL | MEAN CORPUSCULAR VOLUME (72 h, time 3 day): 64.67 fL | MONOCYTE (72 h, time 3 day): 1.33% | NEUTROPHIL (72 h, time 3 day): 7.33% | NUCLEATED RED BLOOD CELLS (72 h, time 3 day): 0 /100WBC | PLATELET COUNT (72 h, time 3 day): 1192 x10E3/uL | ALANINE AMINOTRANSFERASE (72 h, time 3 day): 57 u/L | ALBUMIN (72 h, time 3 day): 4.57 G/DL | ALKALINE PHOSPHATASE (72 h, time 3 day): 388.67 u/L | ASPARTATE AMINOTRANSFERASE (72 h, time 3 day): 82 u/L | BLOOD UREA NITROGEN (72 h, time 3 day): 16.33 mg/dL | CARBON DIOXIDE (72 h, time 3 day): 29 mmol/L | CHLORIDE (72 h, time 3 day): 99 MEQ/L | CHOLESTEROL (72 h, time 3 day): 79.67 mg/dL | CREATINE PHOSPHOKINASE (72 h, time 3 day): 341.33 u/L | CREATININE (72 h, time 3 day): 0.18 mg/dL | GLUCOSE (72 h, time 3 day): 149.33 mg/dL | LACTATE DEHYDROGENASE (72 h, time 3 day): 132.67 u/L | LIPASE (72 h, time 3 day): 10 u/L | PHOSPHORUS (72 h, time 3 day): 12.23 mg/dL | POTASSIUM (72 h, time 3 day): 6.81 MEQ/L | SODIUM (72 h, time 3 day): 144.97 MEQ/L | TOTAL BILIRUBIN (72 h, time 3 day): 0.17 mg/dL | TOTAL PROTEIN (72 h, time 3 day): 6.6 G/DL | URIC ACID (72 h, time 3 day): 1.8 mg/dL | ABSOLUTE BASOPHIL (120 h, time 5 day): 0 CELLS/uL | ABSOLUTE EOSINOPHIL (120 h, time 5 day): 0 CELLS/uL | ABSOLUTE LYMPHOCYTE (120 h, time 5 day): 10781.67 CELLS/uL | ABSOLUTE MONOCYTE (120 h, time 5 day): 45 CELLS/uL | ABSOLUTE SEGMENTED NEUTROPHIL (120 h, time 5 day): 840 CELLS/uL | BASOPHIL (120 h, time 5 day): 0% | EOSINOPHIL (120 h, time 5 day): 0% | ERYTHROCYTE COUNT (120 h, time 5 day): 6.06 x10E6/uL | HEMATOCRIT (120 h, time 5 day): 36.83% | HEMOGLOBIN (120 h, time 5 day): 14.67 G/DL | LEUKOCYTE COUNT (120 h, time 5 day): 11.67 x10E3/uL | LYMPHOCYTE (120 h, time 5 day): 92% | MEAN CORPUSCULAR HEMOGLOBIN (120 h, time 5 day): 24.23 pg | MEAN CORPUSCULAR HEMOGLOBIN CONCENTRATION (120 h, time 5 day): 39.8 G/DL | MEAN CORPUSCULAR VOLUME (120 h, time 5 day): 60.87 fL | MONOCYTE (120 h, time 5 day): 0.33% | NEUTROPHIL (120 h, time 5 day): 7.67% | NUCLEATED RED BLOOD CELLS (120 h, time 5 day): 0.33 /100WBC | PLATELET COUNT (120 h, time 5 day): 996.33 x10E3/uL | ALANINE AMINOTRANSFERASE (120 h, time 5 day): 60.33 u/L | ALBUMIN (120 h, time 5 day): 4.3 G/DL | ALKALINE PHOSPHATASE (120 h, time 5 day): 310.33 u/L | ASPARTATE AMINOTRANSFERASE (120 h, time 5 day): 77.67 u/L | BLOOD UREA NITROGEN (120 h, time 5 day): 17.67 mg/dL | CARBON DIOXIDE (120 h, time 5 day): 24.67 mmol/L | CHLORIDE (120 h, time 5 day): 102.33 MEQ/L | CHOLESTEROL (120 h, time 5 day): 67.33 mg/dL | CREATINE PHOSPHOKINASE (120 h, time 5 day): 145.33 u/L | CREATININE (120 h, time 5 day): 0.2 mg/dL | GLUCOSE (120 h, time 5 day): 139 mg/dL | LACTATE DEHYDROGENASE (120 h, time 5 day): 117.33 u/L | LIPASE (120 h, time 5 day): 9.67 u/L | PHOSPHORUS (120 h, time 5 day): 12.2 mg/dL | POTASSIUM (120 h, time 5 day): 7.04 MEQ/L | SODIUM (120 h, time 5 day): 143.63 MEQ/L | TOTAL BILIRUBIN (120 h, time 5 day): 0.2 mg/dL | TOTAL PROTEIN (120 h, time 5 day): 6.37 G/DL | URIC ACID (120 h, time 5 day): 1.4 mg/dL
